The source of these data is ChEMBL document CHEMBL4257571, “Discovery of 5-(2-chloro-4'-(1H-imidazol-1-yl)-[1,1'-biphenyl]-4-yl)-1H-tetrazole as potent and orally efficacious S-nitrosoglutathione reductase (GSNOR) inhibitors for the potential treatment of COPD” (Bioorg Med Chem Lett, 2018).

The term inhibition denotes how much of the control response was suppressed. One may read the Kp as the ratio of the level in a tissue or fluid to that in plasma or blood. For orientation: AUC(0-t) means exposure summed from dosing to a finite time, without extrapolation to infinity. A higher AUC(0-t) goes with more exposure. As usually defined, the efflux ratio is the permeability from basolateral to apical divided by that in the opposite direction, in the common usage. Usually IC50 stands for the concentration at which inhibition is half-maximal. Usually bioavailability stands for the share of a dose that reaches the circulation, judged against a reference dose that is usually intravenous. Usually solubility stands for the dissolved amount per volume that the medium holds. A lower solubility goes with a poorly soluble substance.

In brackets after ≈: the same amount, converted by molar mass.

Data set [1] in a line: Inhibition of MT3 receptor (unknown origin) at 10 uM relative to control.
Data set [2] deals with Mus musculus. Kind of data set: Anti-inflammatory activity in C57BL/6 mouse model of cigarette smoke induced chronic obstructive pulmonary disease assessed as macrophages count in bronchoalveolar lavage at 3 mg/kg, po administered once daily for 7 days 1 hr prior to first smoke exposure and measured on day 8 after last smoke exposure post single drug treatment by Leishman's staining based assay. The class given is functional.

Another data set deals with CYP2C19 (Homo sapiens, UniProt P33261). The experiment in a line: Inhibition of CYP2C19 in human liver microsomes at 10 uM after 40 mins in presence of NADPH by LC/MS/MS analysis relative to control. The class given is ADME. For orientation: Microsomes from liver hold many membrane-bound enzymes, among them those of drug oxidation.
Data set [3] deals with Mus musculus. The experiment in a line: Anti-inflammatory activity in C57BL/6 mouse model of cigarette smoke induced chronic obstructive pulmonary disease assessed as total leukocyte count in bronchoalveolar lavage at 30 mg/kg, po administered once daily for 7 days 1 hr prior to first smoke exposure and measured on day 8 after last smoke exposure post single drug treatment by hemocytometry. It counts as functional.

The target of a further data set is CYP2D6 (Homo sapiens, UniProt P10635). Kind of data set: Inhibition of CYP2D6 in human liver microsomes at 10 uM after 20 mins in presence of NADPH by LC/MS/MS analysis relative to control. The conditions noted are these: liver microsomes. The class given is ADME.
The nature of data set [4]: Ratio of drug uptake in lung to plasma of C57/BL6 mouse at 3 mg/kg, iv or 30 mg/kg, po. It counts as ADME, organism-based.
Data set [5] can be described thus: AUC (0 to 24 hrs) in C57/BL6 mouse at 30 mg/kg, po. More on the design: time < 24 hr, dose 30 mg/kg, route oral. The class given is ADME, organism-based. The note with it: in vivo.
Data set [6] can be described thus: Protein binding in mouse plasma at 10 uM by LC/MS/MS based equilibrium dialysis analysis. It counts as ADME, cell-free. The note with it: read-out: PPB (converted).
The nature of data set [7]: Efflux ratio of apparent permeability across basolateral to apical side over apical to basolateral side in human Calu3 cells. It counts as ADME, cell-based, Calu-3.
Data set [8] is described as follows: Apparent permeability in human Calu3 cells. It counts as ADME, cell-based, Calu-3.
Data set [9] deals with Mus musculus. Kind of data set: Anti-inflammatory activity in C57BL/6 mouse model of cigarette smoke induced chronic obstructive pulmonary disease assessed as total leukocyte count in bronchoalveolar lavage at 10 mg/kg, po administered once daily for 7 days 1 hr prior to first smoke exposure and measured on day 8 after last smoke exposure post single drug treatment by hemocytometry. It counts as functional.

The target of data set [10] is T1, Carbonyl reductase [NADPH] 1 (Homo sapiens) (UniProt P16152).
T1 sequence (whole entry): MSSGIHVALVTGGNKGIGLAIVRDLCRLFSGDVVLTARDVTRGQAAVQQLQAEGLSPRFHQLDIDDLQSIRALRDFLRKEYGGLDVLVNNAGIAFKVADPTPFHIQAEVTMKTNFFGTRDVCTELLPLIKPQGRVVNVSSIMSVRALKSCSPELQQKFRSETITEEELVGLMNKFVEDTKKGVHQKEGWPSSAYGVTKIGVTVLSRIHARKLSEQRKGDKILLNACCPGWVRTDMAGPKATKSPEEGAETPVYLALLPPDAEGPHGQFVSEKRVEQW
The experiment in a line: Inhibition of CBR1 (unknown origin) assessed as reduction in NADP+ production at 10 uM by spectrophotometric analysis relative to control.

Data set [11] can be described thus: Effective permeability of the compound by PAMPA assay. It counts as ADME. The note with it: read-out: Peff. (In general: PAMPA measures passive passage across an artificial lipid membrane.)
The target in data set [12] is Alcohol dehydrogenase class-3 (Homo sapiens, UniProt P11766). Kind of data set: Inhibition of human GSNOR assessed as reduction in NADH consumption after 3 mins by spectrophotometric analysis.
Data set [13] is described as follows: Oral bioavailability in C57/BL6 mouse at 30 mg/kg. The class given is ADME, organism-based. The note with it: in vivo.
The next data set has as its target CYP2C9 (Homo sapiens, UniProt P11712). Kind of data set: Inhibition of CYP2C9 in human liver microsomes at 10 uM after 20 mins in presence of NADPH by LC/MS/MS analysis relative to control. The class given is ADME.
For the next data set, the target named is CYP3A4 (Homo sapiens, UniProt P08684). The experiment in a line: Inhibition of CYP3A4 in human liver microsomes at 10 uM after 20 mins in presence of NADPH by LC/MS/MS analysis relative to control. It counts as ADME. The conditions noted are these: liver microsomes.
Data set [14] has as its target Alcohol dehydrogenase class-3 (Mus musculus, UniProt P28474). The experiment in a line: Inhibition of mouse GSNOR assessed as reduction in NADH consumption after 3 mins by spectrophotometric analysis.
A short description of data set [15]: Volume of distribution in C57/BL6 mouse at 3 mg/kg, iv. The note with it: in vivo, read-out: Vz. The class given is ADME, organism-based.
Data set [16] concerns Mus musculus. Kind of data set: Anti-inflammatory activity in C57BL/6 mouse model of cigarette smoke induced chronic obstructive pulmonary disease assessed as total leukocyte count in bronchoalveolar lavage at 100 mg/kg, po administered once daily for 7 days 1 hr prior to first smoke exposure and measured on day 8 after last smoke exposure post single drug treatment by hemocytometry. The class given is functional.

Data set [17] can be described thus: Aqueous solubility of compound in fed state simulated intestinal fluid at pH 5.2. It counts as physicochemical.
For data set [18], the system named is Mus musculus. The experiment in a line: Anti-inflammatory activity in C57BL/6 mouse model of cigarette smoke induced chronic obstructive pulmonary disease assessed as total leukocyte count in bronchoalveolar lavage at 3 mg/kg, po administered once daily for 7 days 1 hr prior to first smoke exposure and measured on day 8 after last smoke exposure post single drug treatment by hemocytometry. The class given is functional.

In data set [19] the test system is Mus musculus. Kind of data set: Anti-inflammatory activity in C57BL/6 mouse model of cigarette smoke induced chronic obstructive pulmonary disease assessed as macrophages count in bronchoalveolar lavage at 30 mg/kg, po administered once daily for 7 days 1 hr prior to first smoke exposure and measured on day 8 after last smoke exposure post single drug treatment by Leishman's staining based assay. The class given is functional.

Chain of Alcohol dehydrogenase class-3 (Mus musculus, UniProt P28474) (P28474 whole entry): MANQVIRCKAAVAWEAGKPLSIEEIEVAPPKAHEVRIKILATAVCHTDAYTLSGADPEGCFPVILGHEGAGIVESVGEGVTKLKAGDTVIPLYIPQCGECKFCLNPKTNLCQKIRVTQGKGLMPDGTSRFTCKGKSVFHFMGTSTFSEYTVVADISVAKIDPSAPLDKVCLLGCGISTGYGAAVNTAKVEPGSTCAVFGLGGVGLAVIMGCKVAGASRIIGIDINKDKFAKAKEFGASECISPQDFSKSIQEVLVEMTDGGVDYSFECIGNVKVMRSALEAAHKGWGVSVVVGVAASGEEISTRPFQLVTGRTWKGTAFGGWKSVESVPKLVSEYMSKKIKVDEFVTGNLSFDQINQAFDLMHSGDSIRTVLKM
Chain of CYP2C19 (P33261 whole entry): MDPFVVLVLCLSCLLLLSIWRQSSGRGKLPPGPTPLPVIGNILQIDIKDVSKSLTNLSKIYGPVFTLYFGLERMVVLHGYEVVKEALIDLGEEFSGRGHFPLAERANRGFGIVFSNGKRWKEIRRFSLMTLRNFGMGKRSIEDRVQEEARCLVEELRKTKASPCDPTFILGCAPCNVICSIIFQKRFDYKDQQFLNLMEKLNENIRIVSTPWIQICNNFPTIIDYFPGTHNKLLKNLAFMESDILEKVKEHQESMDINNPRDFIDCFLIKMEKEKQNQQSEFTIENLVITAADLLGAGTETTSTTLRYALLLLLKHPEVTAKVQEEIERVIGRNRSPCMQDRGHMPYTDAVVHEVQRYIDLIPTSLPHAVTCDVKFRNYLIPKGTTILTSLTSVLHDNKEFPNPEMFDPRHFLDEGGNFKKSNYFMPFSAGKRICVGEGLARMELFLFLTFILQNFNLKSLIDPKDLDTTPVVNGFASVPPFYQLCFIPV
Chain of CYP2C9 (P11712 whole entry): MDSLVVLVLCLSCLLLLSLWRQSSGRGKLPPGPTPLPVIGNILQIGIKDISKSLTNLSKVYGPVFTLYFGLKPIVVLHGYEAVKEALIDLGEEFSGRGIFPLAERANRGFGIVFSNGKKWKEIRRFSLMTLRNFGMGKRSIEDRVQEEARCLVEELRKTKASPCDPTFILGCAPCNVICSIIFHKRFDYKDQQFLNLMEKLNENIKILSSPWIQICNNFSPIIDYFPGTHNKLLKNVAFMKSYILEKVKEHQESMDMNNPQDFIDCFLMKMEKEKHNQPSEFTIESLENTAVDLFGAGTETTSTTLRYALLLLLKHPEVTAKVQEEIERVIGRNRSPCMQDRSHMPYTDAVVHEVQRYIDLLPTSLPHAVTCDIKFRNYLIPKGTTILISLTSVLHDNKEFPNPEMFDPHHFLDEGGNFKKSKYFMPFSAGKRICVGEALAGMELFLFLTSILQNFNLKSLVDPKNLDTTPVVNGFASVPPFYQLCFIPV
Chain of CYP3A4 (P08684 whole entry): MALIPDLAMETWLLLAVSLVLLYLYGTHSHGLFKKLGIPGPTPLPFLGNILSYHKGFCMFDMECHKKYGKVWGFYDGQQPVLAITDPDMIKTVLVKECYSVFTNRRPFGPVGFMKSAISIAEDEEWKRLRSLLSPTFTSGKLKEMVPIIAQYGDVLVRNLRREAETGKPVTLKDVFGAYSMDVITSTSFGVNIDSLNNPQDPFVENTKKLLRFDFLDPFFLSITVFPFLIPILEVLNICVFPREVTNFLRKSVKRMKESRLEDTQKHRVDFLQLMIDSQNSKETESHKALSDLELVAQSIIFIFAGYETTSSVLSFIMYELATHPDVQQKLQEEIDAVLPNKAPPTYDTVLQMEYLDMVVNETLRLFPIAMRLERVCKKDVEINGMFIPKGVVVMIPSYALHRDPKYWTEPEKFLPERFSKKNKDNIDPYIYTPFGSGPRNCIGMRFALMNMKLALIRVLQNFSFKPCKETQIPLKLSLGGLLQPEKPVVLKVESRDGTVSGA
Chain of CYP2D6 (P10635 whole entry): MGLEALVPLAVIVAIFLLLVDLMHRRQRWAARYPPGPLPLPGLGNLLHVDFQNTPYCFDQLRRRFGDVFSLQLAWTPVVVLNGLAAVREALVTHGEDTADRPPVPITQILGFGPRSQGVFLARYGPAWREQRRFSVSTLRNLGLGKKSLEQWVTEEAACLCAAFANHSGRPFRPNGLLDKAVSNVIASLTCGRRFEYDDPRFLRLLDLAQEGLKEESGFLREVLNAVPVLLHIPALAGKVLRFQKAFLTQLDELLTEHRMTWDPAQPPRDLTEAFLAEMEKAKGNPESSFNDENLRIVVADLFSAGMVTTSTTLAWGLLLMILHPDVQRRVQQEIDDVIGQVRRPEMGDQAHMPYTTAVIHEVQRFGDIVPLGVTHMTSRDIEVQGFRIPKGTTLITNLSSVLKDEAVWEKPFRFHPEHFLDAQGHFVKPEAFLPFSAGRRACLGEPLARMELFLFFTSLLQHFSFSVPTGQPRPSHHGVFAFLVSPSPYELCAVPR
Chain of Alcohol dehydrogenase class-3 (Homo sapiens, UniProt P11766) (P11766 whole entry): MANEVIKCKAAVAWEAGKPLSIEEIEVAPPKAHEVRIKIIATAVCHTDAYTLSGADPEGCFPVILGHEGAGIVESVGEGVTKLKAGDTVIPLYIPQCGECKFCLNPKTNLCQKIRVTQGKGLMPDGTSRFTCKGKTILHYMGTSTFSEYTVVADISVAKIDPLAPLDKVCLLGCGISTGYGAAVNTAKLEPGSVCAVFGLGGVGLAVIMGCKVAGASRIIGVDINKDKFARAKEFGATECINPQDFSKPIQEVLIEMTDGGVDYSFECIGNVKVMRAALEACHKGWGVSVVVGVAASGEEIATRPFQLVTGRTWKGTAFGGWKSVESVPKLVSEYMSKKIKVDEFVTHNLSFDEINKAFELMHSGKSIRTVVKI

Regarding `Clc1cc(-c2nnn[nH]2)ccc1-c1ccc(-n2ccnc2)cc1`, the inhibition came out at 100% in data set [1] and 24% in [10]. Besides, the Activity is reported as 45% with Mus musculus [2]; 49% in the data set on Mus musculus [3]; 41% in the data set with Mus musculus [9]; 53% in the data set on Mus musculus [16]; 32% in the data set with Mus musculus [18]; 61% with Mus musculus [19]. For the same compound, on CYP2C19, the inhibition at 40 min, 10 µM was found to be 86%. For the same compound, the inhibition at 20 min, 10 µM at CYP2D6 stood at 52%; on CYP2C9, 86%; at CYP3A4 it was 55%. For the same compound, the Kp in data set [4] is 0.38. This compound yielded an exposure AUC(0-t) at 24 h in [5] of 69900 ng·h/mL. In data set [6], the fraction unbound at 10 µM is 0.015. In addition, in data set [7], the efflux ratio was 0.8. The Papp in data set [8] is 8.23 ×10⁻⁶ cm/s; in [11], 0.12 ×10⁻⁶ cm/s. The IC50 in [12] came to 9.2 nM; in [14], 7.1 nM. In data set [13], the bioavailability turned out to be 21%. For the same compound, in data set [15], the Vd is 0.41 L/kg. Further, in [17], the solubility is 0.6 µg/mL (≈ 1.86 µM).
